The values below come from patent US20220211860A1, “PEPTIDE DERIVATIVES AND CONJUGATES THEREOF FOR TREATING CANCER” (priority 2019, published 2022).

One series concerns SK-BR-3. The note with it: read-out: IC50 inhibition of cell growth.
A short description of the next series: in vitro. The note with it: human, plasma, half-life (T1/2).
The subject of another series is MCF-7. Particulars: read-out: IC50 inhibition of cell growth.
Series [1] relates to SKOV-3. Particulars: read-out: IC50 inhibition of cell growth.
Procedure: (§2) The IC50 values (μM) were estimated from concentration-response curves using non-linear regression for inhibition of cell growth. Data are expressed as mean±SD from at least three independent experiments, each in triplicate. Statistical analysis was performed using a two-way ANOVA (* p<0.05, the IC50 for each compared with that of their corresponding parent peptide for the same cell line).
Another series deals with MDA-MB-231. The note with it: read-out: IC50 inhibition of cell growth.
The test system of a further series is α-tubulin polymerisation. Nature of the series: α-tubulin immunostaining in TNBC and normal breast cells. It is filed as cell-based. The note with it: TNBC cells and normal breast cells, 1 µM, 18 h. As to the method: FIGS. 8A and 8B: The effect of MMAE and LD5-me-vc-PABC-MMAE (LM) on α-tubulin polymerization. (A) MDA-MB-231 (TNBC cell model) and normal breast cells (HMEC and MCF-10A) were treated with free MMAE and LM at 1 μM and PBS (control) followed by immunostaining of α-tubulin with primary and secondary antibodies. The α-tubulin signals were detected by LEICA SPE2 confocal LSM. (B) The α-tubulin signal intensity was measured by Fiji J software in normal breast cells (HMEC and MCF-10A) and MDA-MB-231. ****p<0.0001 is the significance in the signal intensity in each cell line treated with PBS and LM in comparison to MMAE-treated cells. ####p<0.0001 is the significance of the α-tubulin signal intensity in MDA-MB-231 cells treated with LM in comparison to MCF-10A and HMEC cells. […] Statistical analysis was made in Prism by two-way ANOVA followed by Tukey's multiple comparisons test. Error bars are standard deviations (STDV), n=8 (3 independent repeats).
The intracellular effects of MMAE on α-tubulin polymerisation were examined using α-tubulin immunostaining in TNBC cells (MDA-MB-231) and normal breast cells (MCF-10A and HMEC) treated with MMAE and MMAE conjugated with LD5 (LD5-mc-vc-PABC-MMAE). TNBC cells and normal breast cells were fixed after incubating with […] of MMAE and LD5-mc-vc-PABC-MMAE for 18 h along with PBS as a control. […]

A further series relates to MCF-10A. Nature of the series: MTT cytotoxicity assay, MCF-10A normal breast cells. The note with it: 72 h. It is filed as cell-based. As to the method:
(§1) FIG. 4A to 4E: The cytotoxic activity of the peptide conjugate LD5-mc-vc-PABC-MMAE (LM) in comparison to MMAE was assessed in MDA-MB-231 (TNBC cell model) versus HMEC and MCF-10A (normal breast cells) and SKOV-3 (low LHRH-R expressing cell model), by MTT assay after incubating cells with compounds in serial dilution for 72 h. (A) The relative cellular viability was assessed in comparison to PBS-treated negative control group and IC50 value (nM) was calculated by non-linear regression (curve fit) for HMEC and MCF-10A (normal breast cells) and MDA-MB-231 (LHRH-R positive, TNBC cell model) and SKOV-3 (LHRH-R low expressing cells). (B) The cell viability in LD5-me-vc-PABC-MMAE (LM) was assessed in HMEC as normal breast cell line in comparison to MMAE by two-way ANOVA followed by Sidak's multiple comparisons test (****p<0.0001). (C) The cell viability in LD5-mc-vc-PABC-MMAE (LM) was assessed in MCF-10A as normal breast cell line in comparison to MMAE by two-way ANOVA followed by Sidak's multiple comparisons test (***p<0.001, **p<0.01, *p<0.05). (D) The cell viability in LD5-me-vc-PABC-MMAE (LM) was assessed in MDA-MB-231 (TNBC cell model) in comparison to MMAE by two-way ANOVA followed by Sidak's multiple comparisons test (****p<0.0001). […]

The subject of another series is HMEC. Nature of the series: MTT cytotoxicity assay, HMEC normal breast cells. The note with it: 72 h. Type of series: cell-based. As to the method:
as §1

For series [2], the system named is SKOV-3. In words: MTT cytotoxicity assay, SKOV-3 (low LHRH-R expressing). It is filed as cell-based. The note with it: SKOV-3, 72 h. The protocol:
as §1
A general note: Formazan colour is commonly taken as a measure of viable cells.

Series [3] deals with mice. The note with it: cited from earlier work.
Series [4] concerns mice. Nature of the series: MTD of brentuximab vedotin in mice (comparison). Type of series: in vivo. An excerpt: Therefore, the MTD was not reached at this dose. With the corresponding ADCs bearing MMAE the MTD has been considerably lower.

For orientation: IC50 means the point on the concentration scale where inhibition reaches its midpoint. As a reminder, the half-life is how long it takes for the measured level to halve. Higher therefore signals slow decline.

Read-outs that look alike come from different tables or passages of the source. Non-standard residues stand in square brackets, D forms with d. Residues, ends and D or L forms follow the SMILES beside them. *: point of attachment. Dolaproine = CO[C@@H]([C@@H]1CCCN1)[C@@H](C)C(=O)O; Dil = CC[C@H](C)[C@H](NC)[C@@H](CC(=O)O)OC; X1 = C[C@@H](N*)[C@@H](O)c1ccccc1; NMeV = CN[C@H](C(=O)O)C(C)C

Procedure for MCF-7: as §2
Procedure for MDA-MB-231: as §2
Procedure for SK-BR-3: as §2
Procedure for in vitro: As described herein in vitro metabolic stability in plasma is defined as the susceptibility of a chemical compound to biotransformation in plasma, and is expressed as in vitro half-life (T1/2).
(B) The metabolic stability of LHRH peptide derivatives examined in human plasma and quantified by Liquid Chromatography-Mass-Spectrometry (LC-MS) in a time dependent manner. […] Statistical analysis was performed using a one-way ANOVA followed by Dunnett's post-hoc test. Error bars are standard deviations (STDV), p<0.05, n=9 (3 independent experiments each performed in triplicate).

For `CCNC(=O)[C@@H]1CCCN1C(=O)[C@H](CCCNC(=N)N)NC(=O)[C@H](CC(C)C)NC(=O)[C@@H](CCCCN)NC(=O)[C@H](Cc1ccc(O)cc1)NC(=O)[C@H](CO)NC(=O)[C@H](Cc1c[nH]c2ccccc12)NC(=O)[C@H](Cc1c[nH]cn1)NC(=O)[C@@H](N)CCC(N)=O` [LD4, Gln-His-Trp-Ser-Tyr-D-Lys-Leu-Arg-Pro-NHCH2CH3] (H-QHWSY[dK]LRP-NHEt), the IC50 in the series on SK-BR-3 was 31.2 ± 4.8 µM; in the series on MCF-7, 51.3 ± 3.1 µM; with SKOV-3 [1], > 100 µM; with MDA-MB-231, 36.2 ± 0.8 µM. In the series “in vitro”, the half-life was ~4.28 h.
As for `CCNC(=O)[C@@H]1CCCN1C(=O)[C@H](CCCNC(=N)N)NC(=O)[C@H](CC(C)C)NC(=O)[C@@H](CCCCN)NC(=O)[C@H](Cc1ccc(O)cc1)NC(=O)[C@H](CO)NC(=O)[C@H](Cc1c[nH]c2ccccc12)NC(=O)[C@H](Cc1c[nH]cn1)NC(=O)[C@@H]1CCC(=O)N1` [LD5, pGlu-His-Trp-Ser-Tyr-D-Lys-Leu-Arg-Pro-NHCH2CH3], the IC50 with SK-BR-3 was 33.5 ± 2.5 µM; in the series on MCF-7 it was 47.6 ± 5.4 µM; in the series with SKOV-3 [1] it was > 100 µM; in the series with MDA-MB-231, 38.1 ± 1.4 µM. The half-life in the series “in vitro” is ~6.08 h.
As to `CCNC(=O)[C@@H]1CCCN1C(=O)[C@H](CCCNC(=N)N)NC(=O)[C@H](CC(C)C)NC(=O)[C@@H](CCCCNC(=O)CCCCCN)NC(=O)[C@H](Cc1ccc(O)cc1)NC(=O)[C@H](CO)NC(=O)[C@H](Cc1c[nH]c2ccccc12)NC(=O)[C@H](Cc1c[nH]cn1)NC(=O)[C@@H]1CCC(=O)N1` [LD6, pGlu-His-Trp-Ser-Tyr-D-Lys(Ahx)-Leu-Arg-Pro-NHCH2CH3], the IC50 was 29.7 ± 1.1 µM with SK-BR-3, 49.2 ± 2.1 µM with MCF-7, > 100 µM with SKOV-3 [1] and 33.2 ± 2.5 µM in the series with MDA-MB-231. Also, the half-life in the series “in vitro” is ~5.15 h.
For `CC(C)C[C@H](NC(=O)CNC(=O)[C@H](Cc1ccc(O)cc1)NC(=O)[C@H](CO)NC(=O)[C@H](Cc1c[nH]c2ccccc12)NC(=O)[C@H](Cc1c[nH]cn1)NC(=O)[C@@H]1CCC(=O)N1)C(=O)N[C@@H](CCCNC(=N)N)C(=O)N1CCC[C@H]1C(=O)NCC(N)=O` [LHRH, pGlu-His-Trp-Ser-Tyr-Gly-Leu-Arg-Pro-Gly-NH2, reference compound], the IC50 with SK-BR-3, in the series with MCF-7, in the series with SKOV-3 [1] and with MDA-MB-231 was > 100 µM each time. In addition, the half-life in the series “in vitro” is ~0.167 h.
Turning to `CC[C@H](C)[C@@H]([C@@H](CC(=O)N1CCC[C@H]1[C@H](OC)[C@@H](C)C(=O)N[C@H](C)[C@@H](O)c1ccccc1)OC)N(C)C(=O)[C@@H](NC(=O)[C@@H](NC)C(C)C)C(C)C` [MMAE, monomethyl auristatin E] (H-[NMeV]V[Dil][Dolaproine]-X1), the “α-tubulin formation compared to PBS control” value with α-tubulin polymerisation is recorded as “dramatic decrease in α-tubulin formation”. Further, the figures for the IC50 with MCF-10A, in the series with HMEC and in the series on SKOV-3 [2] were 0.00083 µM, 0.00011 µM and 0.03 nM, respectively.
For `CC(C)C[C@H](NC(=O)[C@@H](CCCCN)NC(=O)[C@H](Cc1ccc(O)cc1)NC(=O)[C@H](CO)NC(=O)[C@H](Cc1c[nH]c2ccccc12)NC(=O)[C@H](Cc1cnc[nH]1)NC(=O)[C@@H]1CCC(=O)N1)C(=O)N[C@@H](CCCNC(=N)N)C(=O)N1CCC[C@H]1C(=O)NCC(N)=O` [[k^6] LHRH, reference compound], the half-life in the series “in vitro” is ~0.65 h.
For `CC(C)C[C@H](NC(=O)[C@@H](Cc1c[nH]c2ccccc12)NC(=O)[C@H](Cc1ccc(O)cc1)NC(=O)[C@H](CO)NC(=O)[C@H](Cc1c[nH]c2ccccc12)NC(=O)[C@H](Cc1c[nH]cn1)NC(=O)[C@@H]1CCC(=O)N1)C(=O)N[C@@H](CCCNC(=N)N)C(=O)N1CCC[C@H]1C(=O)NCC(N)=O` [triptorelin, reference compound], the IC50 in the series on SK-BR-3 is 81.2 ± 7.2 µM; in the series on MCF-7, 79.4 ± 5.3 µM; with SKOV-3 [1], > 100 µM; with MDA-MB-231, 68.1 ± 8.1 µM. Also, the half-life in “in vitro” is ~0.317 h.
In the case of “brentuximab vedotin: ADC in the clinic containing MMAE”, the MTD in the series with mice [3] is 30 to 40 mg/kg. Further, the “MTD expressed as equivalent of LHRHD-(mc-vc-PABC)-MMAE” value with mice [4] was “approximately 70 mg/kg”.
